Here are results for two compounds from US12544350B2, “Combinatorial antitumor treatment methods and related compositions, kits, and systems” (Klotho Therapeutics, Inc., priority 2021, dated 2026).

Test [1] has as its system cisplatin induced acute kidney injury (CI-AKI) in mice. As to the kind of experiment: Cisplatin-induced acute kidney injury (CI-AKI) in mice, Compound 3 (Example 11). The test is classed as in vivo, female C57BL/6J mice. The procedure: The aim of the study was to investigate the efficacy of test compounds in the model of cisplatin induced acute kidney injury (CI-AKI) in mice. […] Serum analysis for urea (BUN) was performed on the 5th day and 9th days after cisplatin administration. The mean body weight loss per group was calculated every day of the study as percentage loss of initial (day 0) weight for each individual animal.
Study design, animal selection, handling and treatment were all in accordance with the CRO's study protocols and Institutional Animal Care and Use Guidelines. Animal treatment and serum samples preparation were conducted by the Animal Laboratory personnel at the CRO. 60 female C57BL/6J mice 9-12 weeks old were randomized by body weight and divided into 2 groups, 30 animals each. Body weights ranged from 13.9 to 22.0 g with an average body weight across all groups 17.75 g (SD=1.30; CV=7.3%). Each mouse was treated with a single dose via IP route of administration with cisplatin at the dose of 11 mg/kg on the day 0 of the study. […] The mice in Group 1 remained untreated after the cisplatin injection until the terminal sacrifice.
Cisplatin was administered without dilution as a factory-made 1 mg/ml solution for infusion at the injection volume of 11 ml/kg for the dose of 11 mg/kg. […] Only freshly prepared formulation was used for each dosing; each working formulation batch was prepared immediately prior to the administration. The working formulations were sterile filtered using 0.2 μm cellulose acetate syringe filters before injections. The dosing volume for the test compound was 5 ml/kg of body weight. The working formulations were administered as transparent clear solutions. Intraperitoneal (IP) route of administration was used in the study. Urea (BUN) was determined in the serum using a commercial kit according to the manufacturer's instructions. […] The rate of absorbance change at λ=340 nm is proportional to the urea concentration. […] Creatinine was measured using Modified Jaffe's method, without deproteinization. […]

Test [2] concerns cisplatin-induced acute kidney injury (CI-AKI) mouse model. As to the kind of experiment: Cisplatin-induced acute kidney injury (CI-AKI) mouse model, Compound 22 (Example 9). The test is classed as in vivo, female C57BL/6J mice. The note with it: for gradual recovery of mean body weight, onset: cisplatin 11 mg/kg IP day 0. The procedure:
The aim of the study was to investigate the efficacy of test compound(s) in a (mouse) model for acute kidney injury. Specifically, the study investigated the efficacy of test compound(s) in cisplatin-induced acute kidney injury (CI-AKI) mouse model. For example, the effect of daily repeated intraperitoneal (IP) administration of Compound 22 at doses of 50 mg/kg for 7 consecutive days in four different treatment regimens on development of pathology in mice in CI-AKI model was evaluated. Serum analysis for urea (BUN) was performed on the 5th day and 12th days after cisplatin administration. The mean body weight loss per group was calculated every day of the study as percentage loss of initial (day 0) weight for each individual animal.
Study design, animal selection, handling and treatment were all in accordance with the CRO's study protocols and Institutional Animal Care and Use Guidelines. Animal treatment and serum samples preparation were conducted by the Animal Laboratory personnel at the CRO. 100 female C57BL/6J mice 11-14 weeks old were randomized by body weight and divided into five groups, 20 animals each. Body weights ranged from 16.9 to 22.5 g with an average body weight across all groups 19.54 g (SD=1.04; CV=5.3%). Each mouse was treated with a single dose via IP route of administration with cisplatin at the dose of 11 mg/kg on the day 0 of the study. The mice in Group 2 and 4 were repeatedly treated with Compound 22 at the dose of 50 mg/kg with an interval of 24 h for seven consecutive days starting from Day 2 or Day 0 of the study, respectively. […]
To induce acute kidney injury, cisplatin was administered without dilution as a factory-made 1 mg/ml solution for infusion at the injection volume of 11 ml/kg for the dose of 11 mg/kg. […] Urea (BUN) was determined in the serum using a commercial kit according to the manufacturer's instructions. […] The rate of absorbance change at λ=340 nm is proportional to the urea concentration. […]

Test [3] deals with cisplatin-induced acute kidney injury (AKI) in male Sprague Dawley rats. As to the kind of experiment: Cisplatin-induced acute kidney injury (AKI) in rats, 90 minutes infusion (Example 12). The test is classed as in vivo. The settings on record: for body weight change over baseline (BWC): day 0-6, after post-treatment period, cisplatin 5 mg/kg IP. As for the experimental part: The goal of this study was to assess the effect of compound 22 at the doses of 50 mg/kg and 25 mg/kg on the development of cisplatin-induced acute kidney injury (AKI) in male Sprague Dawley rats. Compound 22 was administrated repeatedly seven consecutive days by 90 minutes infusion into a jugular vein using automatic pumps. Treatment was initiated simultaneously with the single intraperitoneal (IP) administration of cisplatin at the dose of 5 mg/kg. The experimental animal's mortality was recorded daily. […] Serum analysis for Creatinine and Urea were performed on day −4th (blank), 1st, 3rd, 6th, 9th, and 12th (terminal) day of the study.
Rat's jugular vein catheterization. Rat's jugular vein catheterization procedure was performed on −3rd day of the study. All experimental animals were anesthetized prior to surgical intervention by Telazol at the dose of 40 mg/kg body weight and Xylazine at the dose of 8 mg/kg body weight. The anesthetized rat was placed onto a heated surgical platform. The surgical area was shaved and gently scrubbed with a drop of iodine in 96% ethanol solution. The skin incision (2 cm) was made on the right of the midline of the neck at the level of the clavicle using a scalpel. Dissected jugular vein, separated from the salivary and lymphatic tissues, was visualized and isolated approximately 5 mm section of the vessel. The cranial end of the vessel was tied using 4-0 silk ligatures. By micro surgical scissors an incision was made to pass the catheter into the vein approximately 20 mm towards the heart. The caudal end of the jugular vein was tied to catheter's collar with silk ligatures aimed to secure the place of catheter. The free end of catheter was tunneled subcutaneously and connected to a transcutaneous button that features an external port with a cap at the nape of the animal's neck. […] To prevent dehydration after the surgery animals were injected with 2 ml physiological saline intraperitoneal. To prevent catheter occlusion and ensure its functioning flushing 0.10-0.20 ml amount of physiological saline with anticoagulant (Heparin, 500 IU/ml) was applied. First time catheter flushing was performed immediately after catheter was properly positioned in the jugular vein and fixed there. The procedure was repeated prior to infusion start. When a catheter was not in use, it was locked. The infusion was started three days after the catheter placement.
Fluid infusion. Programmable automatic syringe pumps system allowed for a fluid infusion of delivering determined volume at the selected infusion time. After the catheter flushing animals were connected to the tether and the swivel setup permitted free movement of the animal during the infusion. The duration of infusion was 90 minutes. The volume of infusion was 10 ml/kg; infusion rate was determined automatically according to time of infusion and volume of the administrated formulation. The infusions were performed from 10 am to […] in a random order.
Drug formulation. Route and volume of administration. Cisplatin was administered without dilution as a factory-made 1 mg/ml solution for infusion at the injection volumes of 5 ml/kg which corresponded to the doses of 5 mg/kg. IP route was used for cisplatin administration in the study. Compound 22 was formulated in sterile conditions in physiological saline at the concentrations 5 mg/ml for the dose level 50 mg/kg and 2.5 mg/ml for the dose level 25 mg/kg and was administrated as true solution. All formulations were sterilized by filtration via Minisart RC 0.2 μm sterile syringe filter. Compound 22 infusion duration was 90 minutes. The administrated volume for all group was 10 ml/kg of the body weight.
Frequency and duration of the application. cisplatin was administered once on day 0 of the study, 30 min before first infusion. Compound 22 as well as vehicle was administrated 7 consecutive days (day 0-day 6) once per day.
Duration of the experimental period. […]

The mark [4] stands for this setting: 50 mg/kg IP, 5th day after the cisplatin injection.

Consider `CN(C)CCOC(=O)CCCSc1ccccc1` [Compound 3, 2-(dimcthylamino)ethyl 4-(phenylsulfanyl)butanoate], for which, in test [1] (setting [4]), the “mean level of creatinine in serum compared to G1” value is “significantly less” and the “mean level of urea in serum compared to G1” value is “significantly less”. In addition, the “gradual recovery of mean body weight, onset” value (from here on “gradual recovery”) in test [1] (G2: 50 mg/kg IP every 24 h for seven days from Day 2, cisplatin 11 mg/kg IP day 0) was “beginning from the sixth day of the study”.

For the compound `C[N+](C)(C)CCOC(=O)CCCSc1ccccc1.Cl` [Compound 22, N,N,N-trimethyl-2-{[4-(phenylsulfanyl)butanoyl]oxy}ethan-1-aminium chloride], the “gradual recovery” value in test [2] (G2-G3: 50 mg/kg IP once or twice a day, days 2-8) is “beginning from the fifth day of the study”. The “mean level of urea in serum compared to G1” value in test [2] (G2-G5, 50 mg/kg IP, 5th day after the cisplatin injection) was “significantly less”. Further, the “gradual recovery” value in test [2] (G4-G5: 50 mg/kg IP once or twice a day, days 0-6) is on record as “beginning from the seventh day of the study”. In test [3] (25 mg/kg), the “body weight change, comparison with the cisplatin, vehicle group” value was “No statistical significance” and the “histopathology scores compared to Vehicle-treated animals with cisplatin injection” value is on record as “no significant difference”. The “body weight change over baseline (BWC)” value in test [3] (25 mg/kg infusion once per day) is recorded as −17.6%. Besides, in test [3] (25 mg/kg, H&E, terminal day), the “kidney histopathology: cast deposition” value was “medium”, the “kidney histopathology: connective tissue accumulation” value is recorded as “mild”, the “kidney histopathology: glomerulonephritis” value is recorded as “mild” and the “kidney histopathology: hemorrhages” value is on record as “occasional”. In test [3] (25 mg/kg, H&E, terminal day), the “kidney histopathology: interstitial nephritis” value is “medium/severe”, the “kidney histopathology: loss of brush border” value was “severe”, the “kidney histopathology: loss of tubules” value is listed as “mild” and the “kidney histopathology: necrotic loci” value was “medium-frequent”. In test [3] (25 mg/kg, H&E, terminal day), the “kidney histopathology: tubular atrophy” value was “mild”, the “kidney histopathology: tubular dilation” value is “medium”, the “kidney histopathology: tubular epithelium flattening” value is listed as “medium/severe” and the “kidney histopathology: tubular epithelium loss” value is “medium”. Besides, the “kidney histopathology: tubular hyperplasia” value in test [3] (25 mg/kg, H&E, terminal day) was “occasional”. Besides, in test [3] (25 mg/kg, day 6), the “serum Creatinine values compared to the cisplatin, vehicle-treated group” value is given as “significant decrease” and the “serum Urea values compared to the cisplatin, vehicle group” value is “significant decrease”. In test [3] (50 mg/kg), the “body weight change, comparison with the cisplatin, vehicle group” value was “No statistical significance” and the “histopathology scores compared to Vehicle-treated animals with cisplatin injection” value is recorded as “no significant difference”. Moreover, the “severity of weight loss in individual animals (frequency distribution analysis)” value in test [3] (50 mg/kg and 25 mg/kg, end of the study period, compared to cisplatin treatment) is given as “decreases the severity of weight loss”. In addition, the “body weight change over baseline (BWC)” value in test [3] (50 mg/kg infusion once per day, survived animals) is listed as −3.9%. In addition, in test [3] (50 mg/kg, H&E, terminal day), the “kidney histopathology: cast deposition” value is on record as “mild”, the “kidney histopathology: connective tissue accumulation” value is reported as “mild”, the “kidney histopathology: interstitial nephritis” value was “mild/medium” and the “kidney histopathology: loss of brush border” value was “severe”. In test [3] (50 mg/kg, H&E, terminal day), the “kidney histopathology: loss of tubules” value was “occasional”, the “kidney histopathology: necrotic loci” value is “occasional”, the “kidney histopathology: tubular atrophy” value is given as “medium/mild” and the “kidney histopathology: tubular basophilia” value is recorded as “occasional”. In test [3] (50 mg/kg, H&E, terminal day), the “kidney histopathology: tubular dilation” value was “medium”, the “kidney histopathology: tubular epithelium flattening” value is reported as “medium”, the “kidney histopathology: tubular epithelium loss” value is recorded as “medium” and the “kidney histopathology: tubular epithelium vacuolation” value is listed as “occasional”. Also, in test [3] (50 mg/kg, H&E, terminal day), the “kidney histopathology: tubular hyperplasia” value is on record as “occasional”. In addition, the “serum Creatinine values compared to the cisplatin, vehicle-treated group” value in test [3] (50 mg/kg, day 6) is reported as “significant decrease”. In addition, in test [3] (50 mg/kg, day 9), the “serum Creatinine values compared to the cisplatin, vehicle-treated group” value is reported as “significant decrease” and the “serum Urea values compared to the cisplatin, vehicle group” value is recorded as “significant decrease”. In addition, the “cisplatin-induced AKI development (serum Creatinine and Urea levels during infusions and post-infusion period)” value in test [3] (both tested doses (50 mg/kg and 25 mg/kg)) was “prevented cisplatin-induced AKI development”.
